Measured values reported in patent US12351634B2, “Use of cilengitide for ameliorating cardiac fibrosis occurring in response to myocardial infarction” (priority 2018, dated 2025).

Key:
[1] = system: FACS-isolated cardiac PW1+ cells; experiment: Pharmacological inhibition of PW1+ cells in vitro, Q-PCR on fibrosis markers; format: cell-based, mouse; conditions: cilengitide 300 nM, 1000 nM vs vehicle, treated for 48 h
Protocol: Animals were injected with heparin (100 UI/25 g) before euthanasia. The right atrium was carefully nicked with surgical scissors and the heart was perfused with 10 mL of PBS (Gibco) through the right ventricle to remove the blood. After collecting the heart, the atria were trimmed away and the ventricles were finely sliced (0.5-1 mm^3). Cardiac cells were dissociated at 37° C. for 30 min by enzymatic digestion with 480 U/mL collagenase II (Worthington) in DPBS (GIBCO). The digestion was stopped with DMEM (Life Technologies) supplemented into 10% FBS (Sigma) and 1% penicillin/streptomycin (P/S; Life Technologies) and the cell suspension was filtered through 100 μm Falcon cell strainer before centrifugation at 416 g for 10 min at 4° C. The cell pellet was re-suspended in 500 μL of Red Blood Cell Lysing (RBCL) Buffer to lyse red blood cells at RT for 30 sec. DPBS was added before 10 min centrifugation in same conditions as above. The cell pellet was then re-suspended in 300 μL of HBSS (Gibco) containing 1% FBS (HBSS-1% FBS) to perform immunostaining for 45 min on ice in dark. The list of antibodies used is reported in supplemental table 1. After incubation, HBSS-1% FBS was added and cells centrifuged at 416 g for 10 min at 4° C. to perform PW1+ cells staining. For this, 300 μL of HBSS-1% FBS containing 60 μM of 5-Dodecanoylaminofluorescein Di-β-D-Galactopyranoside (C12FDG, ThermoFisher Scientific) a substrate for β-gal detection by flow cytometry was added on cells then incubated in dark at 37° C. for 1 h under constant agitation. Reaction was stopped by the addition of HBSS-1% FBS. After cell centrifugation, the pellet was re-suspended in 200 μL of HBSS-1% FBS, the viability dye propidium iodide (Sigma) was added and the samples were filtered through a 50 μm Filcon (BD bioscience) just before the analysis.
FACS sorted PW1^+ or PW1^− cells were plated at the density of 25 000 cell per cm^2 in culture plates coated with attachment factor (ThermoFisher Scientific). Cells were left to adhere overnight with 0.5 mL of growth medium (DMEM 10% FBS 1% P/S). The culture medium was changed the day after. At day 5, culture media was changed and supplemented with 0, 300 nM, or 1 μM of cilengitide. At day 6, medium was removed, and cells were washed twice with PBS. Cells were then lysed and RNA extracted followed by an RT-PCR. A Q-PCR was finally performed on selected fibrosis markers.
To test this hypothesis, we first investigated whether CD51 pharmacological inhibition affects the expression of profibrotic genes in freshly FACS-isolated cardiac PW1^+ cells. These cells were seeded and cultured for 4 days and then treated for 48 h with growing concentrations of cilengitide or vehicle. […]

[2] = system: cardiac PW1+ cells in PW1nLacZ-reporter mouse post-MI hearts; experiment: Short-term lineage tracing of cardiac PW1+ cells in post-MI heart sections; format: in vivo; conditions: cardiac sections of post-MI (7 days) hearts, vs vehicle
Protocol: Male 8 weeks-old C57BL/6 or PW1-reporter (PW1^nLacZ) mice were anesthetized in an induction chamber with 2% isoflurane mixed with 1.0 L/min 100% 02 and placed on a supine position on a heating pad to maintain body temperature. The mice were intubated with endotracheal tube and then connected to a rodent ventilator (180 breaths/min and a tidal volume of 200 μl). During surgical procedure anesthesia is maintained at 1.5-2% isoflurane with O2. The chest was accessed from the left side through the intercostal space and the pericardium incised. The left anterior descending coronary artery (LAD) was exposed and encircled with a 8.0 prolene suture at the apex of the left ventricle. The suture was briefly snared to confirm the ligation by blanching the arterial region. Mice were analyzed 7 days after LAD permanent ligation.
Male C57BL/6J mice (Janvier labs) or PW1-reporter (PW1^nLacZ) mice received Cilengitide at 10 mg/kg/day (Adooq bioscience, ref: A12372) or vehicle i.p. for 14 days. LAD surgery was performed 7 days after starting cilengitide or vehicle administration. Mice were divided in 4 groups: MI-CIL (Cilengitide), MI-Veh (vehicle), Ctrl-CIL and Ctrl-Veh. […]

[3] = system: integrin αV, including αVβ1, αVβ3 and αVβ5; conditions: cited from earlier work
[4] = system: mice subjected to MI via a complete LAD ligation; experiment: Myocardial infarction by LAD ligation, cilengitide vs vehicle; format: in vivo, mouse
Protocol: Male C57BL/6J mice (Janvier labs) or PW1-reporter (PW1^nLacZ) mice received Cilengitide at 10 mg/kg/day (Adooq bioscience, ref: A12372) or vehicle i.p. for 14 days. LAD surgery was performed 7 days after starting cilengitide or vehicle administration. Mice were divided in 4 groups: MI-CIL (Cilengitide), MI-Veh (vehicle), Ctrl-CIL and Ctrl-Veh. At Day 14, animals were euthanatized and hearts were carefully collected, incubated for 2 h at 4° C. in 4% Formaldehyde solution (Ted Pella) then 24 h in 30% sucrose/PBS solution before OCT embedding and frozen in liquid nitrogen vapours. Echocardiographic measurements were taken at days 0 and 7 to assess cardiac function.
When comparing more than 2 groups, quantitative data were analyzed using one-way ANOVA and pair wise comparisons with Tukey's test for multiple comparisons. The Mann Whitney U test was used for comparing continuous variables between 2 groups. A log rank (Mantel-Cox) test was used to compare survival between groups. P-values <0.05 were considered significant.
Mice were pre-treated for 7 days with cilengitide or vehicle and were then subjected to MI via a complete LAD ligation. The mice were further daily treated with cilengitide or vehicle for additional 7 days before final evaluation of cardiac function and remodeling (FIG. 1a).

[5] = sham animals (no MI), cilengitide 10 mg/kg/day i.p., data not shown

For CC(C)[C@H]1C(=O)N[C@@H](CCCN=C(N)N)C(=O)NCC(=O)N[C@@H](CC(=O)O)C(=O)N[C@H](Cc2ccccc2)C(=O)N1C [cilengitide, 2-[(2S,5R,8S,11S)-5-benzyl-11-{3-[(diaminomethylidene)amino]propyl}-7-methyl-3,6,9,12,15-pentaoxo-8-(propan-2-yl)-1,4,7,10,13-pentaazacyclopentadecan-2-yl]acetic acid], the Colla1 expression [1] was “not affected”, the “aSma (or Acta2) expression” value [1] was “significant down-regulation” and the mmp2 expression [1] was “significant down-regulation”. For the same compound, the tgfrb1 expression [1] was “significant down-regulation”, the “number of β-gal+ cells that did not express vimentin” value ([2]; p<0.001) was “significant increase” and the “proportion of cells co-expressing β-gal and vimentin” value ([2]; p<0.05) was “significant reduction”. The “inhibiting activity against the integrin αV” value [3] was “strong inhibiting activity”, the survival ([4]; 7 days after MI, cilengitide 10 mg/kg/day i.p. for 14 days, started 7 days before LAD ligation, vs vehicle, p<0.05 log-rank) was “significant improvement” and the “cardiac function as measured by left ventricular ejection fraction” value ([4]; 7 days after MI, cilengitide 10 mg/kg/day i.p., vs vehicle) was “significant increase”. The infarct size ([4]; 7 days after MI, masson trichrome, digital image quantification, 10 mg/kg/day i.p., vehicle 56.8±14.9%, p=0.0008) was 38.8±7.9%, the “interstitial fibrosis measured in the remote myocardial area” value ([4]; 7 days after MI, picrosirius red, 10 mg/kg/day i.p., vehicle 36.8±13.1%, p<0.0001) was 15.9±10.4% and the “cardiac rupture (adverse outcome)” value ([4]; post-MI mice under cilengitide treatment) was “did not observe”. The “cardiac fibrosis in sham animals” value [4, 5] was “not associated with any changes”, the “cardiac function in sham animals” value [4, 5] was “not associated with any changes” and the “survival in sham animals” value [4, 5] was “not associated with any changes”.
